Reference: patent publication US12098147B2, “Compound having novel structure, complex comprising same, anti-cancer pharmaceutical composition, and anti-cancer drug” (ETNOVA THERAPEUTICS CORP., priority 2018, dated 2024)

Tests used:
NE-4C = test: CCK-8 cell viability, NE-4C neural stem cell line; assay type: cell-based; conditions: serum-free medium, 24 hours, CCK-8; mean ± SD of 2 to 3 experiments; read-out: IC50 NC-4C (Neural stem cell)
Experimental: (§1) CCK-8 (Cell counting kit-8) is analyzed using a highly water-soluble tetrazolium salt-[…]. [2-(2-methoxy-4-nitrophenyl)-3-(4-nitrophenyl)(2,4-disulfophenyl)-2H-tetrazolium, monosodium salt] is reduced under the presence of an electron medium to produces a water-soluble formazan orange dye. The amount of the formazan dye produced by dehydrogenase in a cell is directly proportional to the number of living cells.
(§2) In an experimental method for evaluating the properties of the compounds according to the present disclosure, various cancer cell lines derived from humans and normal cell lines of each tissue derived from humans and mice were used in this experiment. A complete growth medium corresponding to each cell line and having 10% of heat-inactivated FBS added thereto was used to maintain corresponding cells. The maintained cells were suspended in a volume of 200 μl at a density of 1 or 1.5×10^4 cells and planted in each well of a 96 well plate. The cells were attached to a 37° C. and 5% CO2 incubator for more than 14 hours, and we waited for a stable state. The next day, we removed the medium from the well. 100 μl of serum-free medium containing drugs of various concentrations (0 (control), 2.5, 5, 10, 20, 30, 40, 50, 100, 200 μM) was added to each well and the cells was cultured therein. On 22 hours after the incubation, 10 μl of CCK-8 solution was added to each well, followed by incubation for 2 hours. A plate on which the culture was completed was measured in terms of absorbance at 450 nm using a microplate reader.
(§3) Cell Viability Calculation:
(§4) • A: Absorbance value measured in a control well • B: Absorbance value measured in a well containing the drug
(§5) In Table 1 below, each compound was applied to the cells at 0, 2.5, 5, 10, 20, 30, 40, 50, 100, and 200 μM, and the cells was cultured in a medium free of serum for 24 hours. The measured absorbance value was converted to a % value based on a value of 0, such that a IC50 value was calculated. Each experiment was performed 2 to 3 times and a standard deviation value was obtained.

HepG2 = test: CCK-8 cell viability, HepG2 liver cancer cell line; assay type: cell-based, human; conditions: serum-free medium, 24 hours, mean ± SD of 2 to 3 experiments
Experimental: (§6) To identify the anticancer effect of the compounds L1, L2, and L3 according to Examples 1 to 3 of the present disclosure, and the complexes L1Pt, L2Pt, and L3Pt according to Examples 4 to 6 of the disclosure, the cell viability analysis of cancer cells using CCK-8 was performed on several cancer cell lines (colorectal cancer cell line (HT-29 cell line), breast cancer cell line (MCF-7 and MDA-MB-231), cervical cancer cell line (HeLa cell line), liver cancer cell line (Huh-7 and HepG2), brain glioma cell line (C6), lung cancer (A549), prostate cancer (PC3), kidney cancer (Caki-2), normal liver cell line (AML-12), embryonic kidney cell line (HEK-293), neural stem cell line (NE-4C) and normal breast epithelial cell line (MCF10a)).
as §1, §2, §3, §4, §5

[1] = test system: several cancer cell lines; test: CCK-8 cell viability, panel of cancer cell lines compared in words (FIGS. 3a to 3e); assay type: cell-based, human; conditions: Log IC50, FIGS. 3a to 3e; no comparator
Experimental: as §6, §1, §2
Further, FIGS. 3a to 3e show a graph in which a IC50 value which is obtained based on 2 to 3 times executions of the cell viability analysis is converted to a Log IC50 value. […] The comparative reliability values for BTA were expressed as […], ##p<0.01, and ## #p<0.001. A red line represents the value of cisplatin. A blue line represents the value of BTA.

AML12 = test: CCK-8 cell viability, AML-12 normal liver cell line; assay type: cell-based; conditions: serum-free medium, 24 hours, CCK-8; mean ± SD of 2 to 3 experiments
Experimental: as §1, §2, §3, §4, §5

Caki-2 = test: CCK-8 cell viability, Caki-2 kidney cancer cell line; assay type: cell-based, human; conditions: serum-free medium, 24 hours, mean ± SD of 2 to 3 experiments
Experimental: as §6, §1, §2, §3, §4, §5

HT-29 cell line = test: CCK-8 cell viability, HT-29 colorectal cancer cell line; assay type: cell-based, human; conditions: serum-free medium, 24 hours, mean ± SD of 2 to 3 experiments
Experimental: as §6, §1, §2, §3, §4, §5

A549 = test: CCK-8 cell viability, A549 lung cancer cell line; assay type: cell-based, human; conditions: serum-free medium, 24 hours, mean ± SD of 2 to 3 experiments
Experimental: as §6, §1, §2, §3, §4, §5

PC3 = test: CCK-8 cell viability, PC3 prostate cancer cell line; assay type: cell-based, human; conditions: serum-free medium, 24 hours, mean ± SD of 2 to 3 experiments
Experimental: as §6, §1, §2, §3, §4, §5

MCF10a = test: CCK-8 cell viability, MCF10a normal breast epithelial cell line; assay type: cell-based; conditions: serum-free medium, 24 hours, CCK-8; mean ± SD of 2 to 3 experiments
Experimental: as §6, §1, §2, §3, §4, §5

MDA-MB-231 = test: CCK-8 cell viability, MDA-MB-231 breast cancer cell line; assay type: cell-based, human; conditions: serum-free medium, 24 hours, mean ± SD of 2 to 3 experiments
Experimental: as §6, §1, §2, §3, §4, §5

MCF-7 = test: CCK-8 cell viability, MCF-7 breast cancer cell line; assay type: cell-based, human; conditions: serum-free medium, 24 hours, mean ± SD of 2 to 3 experiments
Experimental: as §6, §1, §2, §3, §4, §5

HeLa cell line = test: CCK-8 cell viability, HeLa cervical cancer cell line; assay type: cell-based, human; conditions: serum-free medium, 24 hours, mean ± SD of 2 to 3 experiments
Experimental: as §6, §1, §2, §3, §4, §5

Huh-7 = test: CCK-8 cell viability, Huh-7 liver cancer cell line; assay type: cell-based, human; conditions: serum-free medium, 24 hours, mean ± SD of 2 to 3 experiments
Experimental: as §6, §1, §2, §3, §4, §5

C6 = test: CCK-8 cell viability, C6 brain glioma cell line; assay type: cell-based, human; conditions: serum-free medium, 24 hours, mean ± SD of 2 to 3 experiments
Experimental: as §6, §1, §2, §3, §4, §5

HEK-293 = test: CCK-8 cell viability, HEK-293 embryonic kidney cell line; assay type: cell-based; conditions: serum-free medium, 24 hours, mean ± SD of 2 to 3 experiments, read-out: IC50 HEK293 (embryonic kidney)
Experimental: as §6, §1, §2, §3, §4, §5

In the case of “benzothiazole aniline [BTA, reference compound]”, the IC50 (NE-4C) is reported as 60.9 ± 2.93 µM, the IC50 (HepG2) is reported as 52 ± 5.71 µM and the “effect on cancer cell lines, in words” value [1] is reported as “did not have greater effect on colorectal cancer, brain glioma, and lung cancer”. The IC50 (AML12) was greater than 500 µM, the IC50 (Caki-2) was 463 ± 44.1 µM and the IC50 (HT-29 cell line) was 275 ± 5.03 µM. The IC50 (A549) was greater than 500 µM, the IC50 (PC3) was 182 ± 7.79 µM and the IC50 (MCF10a) was 401 ± 136 µM. It also gave an IC50 (MDA-MB-231) greater than 500 µM, an IC50 (MCF-7) of 104 ± 28.6 µM and an IC50 (HeLa cell line) of 76.4 ± 23.4 µM. The IC50 (Huh-7) was 406 ± 35.7 µM, the IC50 (C6) was 425 ± 47.8 µM and the IC50 (HEK-293) was greater than 500 µM.
